The target in test [1] is Beta-2 adrenergic receptor (Homo sapiens) (UniProt P07550). The note with it: Compound concentration 10.0 uM.
Test [2] has as its target T1, TGF-beta receptor type-1 (Homo sapiens) (UniProt P36897).
T1 sequence (whole entry): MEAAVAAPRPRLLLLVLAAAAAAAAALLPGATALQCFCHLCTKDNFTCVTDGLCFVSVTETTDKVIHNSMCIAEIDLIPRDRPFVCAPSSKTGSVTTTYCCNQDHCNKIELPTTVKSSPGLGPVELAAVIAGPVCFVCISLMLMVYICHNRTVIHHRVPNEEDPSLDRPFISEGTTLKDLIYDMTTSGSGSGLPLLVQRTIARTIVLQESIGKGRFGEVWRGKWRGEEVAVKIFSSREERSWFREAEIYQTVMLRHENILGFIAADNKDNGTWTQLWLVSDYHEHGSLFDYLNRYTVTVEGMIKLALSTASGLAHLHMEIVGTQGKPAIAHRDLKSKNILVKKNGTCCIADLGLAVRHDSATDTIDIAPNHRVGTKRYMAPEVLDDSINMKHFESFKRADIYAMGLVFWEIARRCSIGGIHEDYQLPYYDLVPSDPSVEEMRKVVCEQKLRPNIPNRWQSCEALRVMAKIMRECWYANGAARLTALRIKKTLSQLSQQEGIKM
The test can be described thus: TGFBR1(h) Eurofins kinase panel. The note with it: Compound concentration 1.0 uM.

The target of test [3] is Ribosomal protein S6 kinase alpha-1 (Homo sapiens, UniProt Q15418).
Chain of Ribosomal protein S6 kinase alpha-1 (Q15418 whole entry): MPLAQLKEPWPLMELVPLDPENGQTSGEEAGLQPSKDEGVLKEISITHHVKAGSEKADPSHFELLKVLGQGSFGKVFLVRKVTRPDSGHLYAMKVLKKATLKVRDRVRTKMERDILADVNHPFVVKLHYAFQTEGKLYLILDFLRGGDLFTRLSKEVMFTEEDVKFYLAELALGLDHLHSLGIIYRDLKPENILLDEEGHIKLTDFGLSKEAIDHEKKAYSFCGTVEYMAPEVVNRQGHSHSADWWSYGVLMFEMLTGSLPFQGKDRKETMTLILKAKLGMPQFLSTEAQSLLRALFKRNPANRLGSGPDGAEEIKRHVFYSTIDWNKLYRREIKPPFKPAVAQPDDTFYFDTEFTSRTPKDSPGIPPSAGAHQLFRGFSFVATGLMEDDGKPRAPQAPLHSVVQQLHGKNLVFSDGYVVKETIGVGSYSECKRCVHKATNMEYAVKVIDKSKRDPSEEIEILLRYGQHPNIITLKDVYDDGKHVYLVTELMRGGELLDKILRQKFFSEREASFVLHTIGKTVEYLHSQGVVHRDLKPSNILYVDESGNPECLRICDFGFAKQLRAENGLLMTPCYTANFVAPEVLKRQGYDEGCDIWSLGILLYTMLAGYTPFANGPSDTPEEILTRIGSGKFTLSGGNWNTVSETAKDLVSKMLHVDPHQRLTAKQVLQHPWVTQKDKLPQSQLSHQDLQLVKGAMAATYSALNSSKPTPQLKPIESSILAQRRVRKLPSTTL
Test [4] has as its target T2, G protein-coupled receptor kinase 3 (Homo sapiens) (UniProt P35626).
T2 sequence (whole entry): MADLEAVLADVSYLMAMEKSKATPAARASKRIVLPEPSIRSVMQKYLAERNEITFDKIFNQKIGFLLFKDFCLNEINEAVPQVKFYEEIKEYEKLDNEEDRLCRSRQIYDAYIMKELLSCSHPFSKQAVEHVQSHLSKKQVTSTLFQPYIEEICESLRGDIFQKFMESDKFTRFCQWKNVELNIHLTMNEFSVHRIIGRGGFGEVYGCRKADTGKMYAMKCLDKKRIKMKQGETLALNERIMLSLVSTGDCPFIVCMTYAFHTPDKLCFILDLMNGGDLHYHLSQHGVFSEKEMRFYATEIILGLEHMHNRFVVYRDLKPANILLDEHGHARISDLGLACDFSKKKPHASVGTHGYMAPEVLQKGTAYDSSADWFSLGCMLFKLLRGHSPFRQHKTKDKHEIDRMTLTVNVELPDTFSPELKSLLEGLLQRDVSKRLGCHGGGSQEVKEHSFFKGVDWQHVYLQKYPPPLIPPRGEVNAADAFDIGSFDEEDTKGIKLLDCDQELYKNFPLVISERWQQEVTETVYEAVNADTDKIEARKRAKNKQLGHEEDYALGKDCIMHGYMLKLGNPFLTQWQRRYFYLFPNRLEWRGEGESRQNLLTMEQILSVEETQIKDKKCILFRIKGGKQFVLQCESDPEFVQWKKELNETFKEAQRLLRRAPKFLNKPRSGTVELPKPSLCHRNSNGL
Put plainly: GRK3(h) Eurofins kinase panel. As to conditions: Compound concentration 1.0 uM.

Test [5] has as its target Wee1-like protein kinase (Homo sapiens) (UniProt P30291). The test can be described thus: Wee1(h) Eurofins kinase panel. The note with it: Compound concentration 1.0 uM.
Test [6] concerns the target Protein kinase C beta type (Homo sapiens) (UniProt P05771). The test can be described thus: PKCbetaII (h) Eurofins kinase panel. The note with it: Compound concentration 1.0 uM.
In test [7] the target is Rho-associated protein kinase 1 (Homo sapiens) (UniProt Q13464). The test can be described thus: ROCK-I(h) Eurofins kinase panel. As to conditions: Compound concentration 1.0 uM.
Chain of Rho-associated protein kinase 1 (Homo sapiens) (Q13464 2-1354 limits assumed): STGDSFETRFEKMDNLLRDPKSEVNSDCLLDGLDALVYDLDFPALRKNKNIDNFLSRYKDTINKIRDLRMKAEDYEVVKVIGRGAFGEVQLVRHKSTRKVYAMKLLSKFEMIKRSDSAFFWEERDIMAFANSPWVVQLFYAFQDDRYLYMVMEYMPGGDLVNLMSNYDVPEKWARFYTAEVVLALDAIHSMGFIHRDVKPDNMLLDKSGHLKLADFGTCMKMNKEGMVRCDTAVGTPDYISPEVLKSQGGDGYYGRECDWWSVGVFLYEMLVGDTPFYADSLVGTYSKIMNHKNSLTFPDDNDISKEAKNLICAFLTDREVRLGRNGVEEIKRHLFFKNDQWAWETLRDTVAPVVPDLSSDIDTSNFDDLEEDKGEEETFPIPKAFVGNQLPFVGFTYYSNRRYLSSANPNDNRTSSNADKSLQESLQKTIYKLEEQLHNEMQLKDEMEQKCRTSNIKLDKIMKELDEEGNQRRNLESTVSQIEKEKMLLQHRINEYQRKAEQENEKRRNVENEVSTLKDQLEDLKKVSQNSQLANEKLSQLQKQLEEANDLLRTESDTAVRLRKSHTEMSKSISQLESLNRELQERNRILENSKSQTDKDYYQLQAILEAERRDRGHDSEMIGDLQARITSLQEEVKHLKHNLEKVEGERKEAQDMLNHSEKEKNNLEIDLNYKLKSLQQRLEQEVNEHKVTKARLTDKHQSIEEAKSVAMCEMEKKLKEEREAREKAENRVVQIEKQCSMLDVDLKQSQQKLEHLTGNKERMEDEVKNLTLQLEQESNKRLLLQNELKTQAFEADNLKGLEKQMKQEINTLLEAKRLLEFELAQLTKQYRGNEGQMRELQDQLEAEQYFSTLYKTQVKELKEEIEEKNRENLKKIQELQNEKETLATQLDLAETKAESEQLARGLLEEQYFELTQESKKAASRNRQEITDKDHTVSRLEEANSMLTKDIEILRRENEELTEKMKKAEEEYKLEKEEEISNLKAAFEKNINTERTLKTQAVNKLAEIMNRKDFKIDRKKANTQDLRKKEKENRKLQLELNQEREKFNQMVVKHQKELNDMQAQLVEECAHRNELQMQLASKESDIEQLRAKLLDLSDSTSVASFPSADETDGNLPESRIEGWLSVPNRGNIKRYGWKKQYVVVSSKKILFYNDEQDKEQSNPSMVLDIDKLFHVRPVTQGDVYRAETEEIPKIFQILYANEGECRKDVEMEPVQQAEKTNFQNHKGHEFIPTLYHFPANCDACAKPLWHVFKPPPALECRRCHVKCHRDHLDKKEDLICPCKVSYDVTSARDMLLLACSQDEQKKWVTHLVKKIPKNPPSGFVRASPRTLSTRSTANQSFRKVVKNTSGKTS
For test [8], the target named is Serine/threonine-protein kinase 10 (Homo sapiens) (UniProt O94804). Put plainly: LOK(h) Eurofins kinase panel. The note with it: Compound concentration 1.0 uM.
Chain of Serine/threonine-protein kinase 10 (Homo sapiens) (O94804 whole entry, looked up): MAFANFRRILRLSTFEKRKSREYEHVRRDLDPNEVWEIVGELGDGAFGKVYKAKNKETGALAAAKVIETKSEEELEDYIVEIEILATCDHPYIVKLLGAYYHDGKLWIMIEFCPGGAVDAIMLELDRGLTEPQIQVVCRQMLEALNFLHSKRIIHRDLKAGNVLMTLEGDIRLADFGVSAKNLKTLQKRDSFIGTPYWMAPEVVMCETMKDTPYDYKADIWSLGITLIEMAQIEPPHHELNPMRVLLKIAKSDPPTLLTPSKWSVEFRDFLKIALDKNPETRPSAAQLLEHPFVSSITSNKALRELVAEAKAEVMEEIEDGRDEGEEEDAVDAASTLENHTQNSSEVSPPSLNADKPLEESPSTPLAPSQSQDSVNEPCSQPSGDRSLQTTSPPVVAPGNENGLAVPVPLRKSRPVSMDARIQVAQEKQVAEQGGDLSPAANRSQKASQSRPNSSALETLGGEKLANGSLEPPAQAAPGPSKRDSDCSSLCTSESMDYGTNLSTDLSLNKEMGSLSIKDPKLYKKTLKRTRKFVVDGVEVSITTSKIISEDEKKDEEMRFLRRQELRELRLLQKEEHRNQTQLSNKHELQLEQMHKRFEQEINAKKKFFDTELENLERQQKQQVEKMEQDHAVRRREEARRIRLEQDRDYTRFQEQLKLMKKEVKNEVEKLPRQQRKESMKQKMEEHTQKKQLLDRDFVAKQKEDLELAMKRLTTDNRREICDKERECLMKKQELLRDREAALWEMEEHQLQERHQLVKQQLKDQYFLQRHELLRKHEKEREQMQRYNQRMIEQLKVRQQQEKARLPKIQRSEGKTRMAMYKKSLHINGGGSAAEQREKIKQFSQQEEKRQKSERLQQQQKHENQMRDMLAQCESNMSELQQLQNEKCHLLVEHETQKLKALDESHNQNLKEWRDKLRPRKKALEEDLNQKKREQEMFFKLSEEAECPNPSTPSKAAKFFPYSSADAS
A further test has as its system SW480. Put plainly: SW480 cell line Proliferation assay. In kind it is functional, Homo sapiens. As to conditions: time 3 day.
The target in test [9] is RAC-beta serine/threonine-protein kinase (Homo sapiens) (UniProt P31751). The test can be described thus: PKBbeta (h) Eurofins kinase panel. The note with it: Compound concentration 1.0 uM.
Chain of RAC-beta serine/threonine-protein kinase (Homo sapiens) (P31751 whole entry): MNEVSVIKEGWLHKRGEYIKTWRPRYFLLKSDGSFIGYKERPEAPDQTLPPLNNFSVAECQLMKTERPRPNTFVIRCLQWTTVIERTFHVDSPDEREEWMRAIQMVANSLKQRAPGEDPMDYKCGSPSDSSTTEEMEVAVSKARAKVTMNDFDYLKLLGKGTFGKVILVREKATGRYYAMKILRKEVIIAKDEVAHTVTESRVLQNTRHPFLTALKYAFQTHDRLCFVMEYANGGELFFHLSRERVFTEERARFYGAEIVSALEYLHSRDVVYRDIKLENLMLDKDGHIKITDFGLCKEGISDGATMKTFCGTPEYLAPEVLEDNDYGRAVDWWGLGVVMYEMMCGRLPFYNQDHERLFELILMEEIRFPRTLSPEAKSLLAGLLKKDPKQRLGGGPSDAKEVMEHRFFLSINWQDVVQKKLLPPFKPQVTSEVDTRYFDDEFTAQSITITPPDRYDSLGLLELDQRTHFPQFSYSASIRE
Another test deals with U-251. Put plainly: U251 cell line Proliferation assay. The note with it: time 3 day. In kind it is functional, Homo sapiens.
In test [10] the target is T3, Serine/threonine-protein kinase TAO3 (Homo sapiens) (UniProt Q9H2K8).
T3 sequence (whole entry): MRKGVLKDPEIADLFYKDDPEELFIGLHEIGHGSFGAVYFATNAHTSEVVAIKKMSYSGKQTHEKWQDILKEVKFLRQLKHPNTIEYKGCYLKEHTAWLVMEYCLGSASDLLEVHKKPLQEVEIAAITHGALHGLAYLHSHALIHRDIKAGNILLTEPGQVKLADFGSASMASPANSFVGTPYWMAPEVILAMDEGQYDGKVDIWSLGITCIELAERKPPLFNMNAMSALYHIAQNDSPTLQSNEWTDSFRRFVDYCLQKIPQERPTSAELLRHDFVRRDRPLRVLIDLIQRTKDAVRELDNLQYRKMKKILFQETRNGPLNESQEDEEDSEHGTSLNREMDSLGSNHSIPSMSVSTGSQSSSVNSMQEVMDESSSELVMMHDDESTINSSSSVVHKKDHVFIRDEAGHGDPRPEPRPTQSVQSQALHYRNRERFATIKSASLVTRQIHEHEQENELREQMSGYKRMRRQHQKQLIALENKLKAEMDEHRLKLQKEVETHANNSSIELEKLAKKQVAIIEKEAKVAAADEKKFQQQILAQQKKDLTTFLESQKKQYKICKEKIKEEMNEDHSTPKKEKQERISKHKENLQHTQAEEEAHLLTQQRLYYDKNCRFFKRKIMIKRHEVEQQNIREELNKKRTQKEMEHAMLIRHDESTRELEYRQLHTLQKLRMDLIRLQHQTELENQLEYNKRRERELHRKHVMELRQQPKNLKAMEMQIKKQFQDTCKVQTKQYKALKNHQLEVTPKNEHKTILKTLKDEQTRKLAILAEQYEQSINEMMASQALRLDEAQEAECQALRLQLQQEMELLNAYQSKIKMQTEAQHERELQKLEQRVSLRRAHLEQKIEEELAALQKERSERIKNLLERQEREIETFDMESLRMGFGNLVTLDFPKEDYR
The test can be described thus: TAO3(h) Eurofins kinase panel. The note with it: Compound concentration 1.0 uM.

Test [11] has as its target Aurora kinase B (Homo sapiens) (UniProt Q96GD4). The test can be described thus: Aurora-B(h) Eurofins kinase panel. The note with it: Compound concentration 1.0 uM.

Molecules are shown by their SMILES.

One may read the inhibition as the relative decrease from the control value, in per cent. For orientation: IC50 means the midpoint of a concentration-inhibition curve. A low value points to inhibition by little substance.

Chain of Wee1-like protein kinase (Homo sapiens) (P30291 whole entry, looked up): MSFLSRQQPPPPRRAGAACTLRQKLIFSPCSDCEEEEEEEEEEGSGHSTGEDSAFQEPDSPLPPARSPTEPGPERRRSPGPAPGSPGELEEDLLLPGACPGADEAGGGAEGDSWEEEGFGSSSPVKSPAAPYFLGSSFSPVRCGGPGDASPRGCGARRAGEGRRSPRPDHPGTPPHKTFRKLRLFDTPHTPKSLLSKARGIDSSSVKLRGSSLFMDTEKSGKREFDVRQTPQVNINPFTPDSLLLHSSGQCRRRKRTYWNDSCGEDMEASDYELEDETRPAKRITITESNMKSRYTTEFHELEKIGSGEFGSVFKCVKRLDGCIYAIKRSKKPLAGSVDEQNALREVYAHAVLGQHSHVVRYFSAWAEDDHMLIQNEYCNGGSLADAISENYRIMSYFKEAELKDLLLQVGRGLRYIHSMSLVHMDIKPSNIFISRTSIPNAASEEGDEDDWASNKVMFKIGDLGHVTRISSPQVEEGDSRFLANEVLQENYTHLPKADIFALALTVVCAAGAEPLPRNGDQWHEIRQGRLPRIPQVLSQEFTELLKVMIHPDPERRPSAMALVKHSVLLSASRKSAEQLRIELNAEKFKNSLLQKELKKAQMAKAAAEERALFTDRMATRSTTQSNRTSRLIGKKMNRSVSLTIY
Chain of Beta-2 adrenergic receptor (Homo sapiens) (P07550 whole entry, looked up): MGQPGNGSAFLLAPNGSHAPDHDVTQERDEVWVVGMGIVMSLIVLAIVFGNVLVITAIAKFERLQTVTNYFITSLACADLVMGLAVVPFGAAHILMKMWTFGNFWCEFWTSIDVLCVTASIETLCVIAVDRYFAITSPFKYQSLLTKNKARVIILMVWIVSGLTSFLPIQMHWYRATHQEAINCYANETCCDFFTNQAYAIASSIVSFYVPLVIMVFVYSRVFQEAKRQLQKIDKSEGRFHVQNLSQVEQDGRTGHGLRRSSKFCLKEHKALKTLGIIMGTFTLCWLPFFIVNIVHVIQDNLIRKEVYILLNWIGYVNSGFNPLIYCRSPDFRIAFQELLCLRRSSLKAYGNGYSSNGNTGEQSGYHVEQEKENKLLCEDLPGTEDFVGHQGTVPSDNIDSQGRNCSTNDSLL
Chain of Aurora kinase B (Homo sapiens) (Q96GD4 whole entry): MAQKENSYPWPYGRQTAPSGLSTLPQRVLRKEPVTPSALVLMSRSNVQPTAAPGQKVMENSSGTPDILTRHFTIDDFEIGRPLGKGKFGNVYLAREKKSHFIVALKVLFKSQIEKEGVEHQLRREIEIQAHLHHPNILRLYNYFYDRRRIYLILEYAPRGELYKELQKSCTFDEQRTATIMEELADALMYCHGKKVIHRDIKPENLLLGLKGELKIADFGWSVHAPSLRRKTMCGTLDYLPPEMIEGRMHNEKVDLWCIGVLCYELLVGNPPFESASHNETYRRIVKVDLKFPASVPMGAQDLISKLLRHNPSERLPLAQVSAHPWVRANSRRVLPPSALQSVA

As to `CC1=C(C#N)C(c2ccc3c(c2)c(NC(=O)c2ccccc2C)nn3C)C(C#N)=C(C)N1` [BAY-974], the inhibition in test [1] was -7.25%.

Consider `CCc1ccccc1C(=O)Nc1n[nH]c2c(C)c(F)c(C3C(C#N)=C(C)N(C)C(C)=C3C#N)cc12` [BAY-3827], for which the % residual kinase activity in test [2] is 99%; in test [4] it was 106%; in [5], 96%; in test [6] it was 42%; in [7], 104%; in test [8], 88%. Moreover, the results for the % residual kinase activity in test [9], in [10] and in [11] were 105%, 102% and 76%, respectively. Further, half-maximal inhibition in test [3] (IC50) was put at 0.009 µM. Also, the “Cell Proliferation IC50” value in the test with SW480 worked out at 27.8 µM; in the test with U-251, 20.9 µM.
